This is an account of results in US12662475B2, “Difluorocyclohexyl derivatives as IL-17 modulators” (UCB BIOPHARMA SRL, priority 2020, dated 2026).

In test [1] the test system is IL-17 induced IL-6 release from human dermal fibroblasts. Description: Inhibition of IL-17A induced IL-6 release from dermal fibroblast cell line (HDF cell line assay). It is filed as cell-based. The procedure: Inhibition of IL-17A Induced IL-6 Release from Dermal Fibroblast Cell Line
The purpose of this assay is to test the neutralising ability to IL-17 proteins, in a human primary cell system.
The resultant IL-6 response was then measured using a homogenous time-resolved FRET kit from Cisbio. The kit utilises two monoclonal antibodies, one labelled with Eu-Cryptate (Donor) and the second with d2 or XL665 (Acceptor).
The ability of a compound to inhibit IL-17 induced IL-6 release from human dermal fibroblasts is measured in this assay.
The TrypLE was neutralised using complete medium (45 mL) and the cells were centrifuged at 300×g for 3 minutes. […] The cells were left for a minimum of three hours, at 37° C./5% CO2, to adhere to the plate.
10 μL from the aqueous dilution plate was transferred to the reagent plate containing 30 μL of the diluted cytokines, to give a 2.5% DMSO solution. The compounds were incubated with the cytokine mixtures for 1 h or 5 h at 37° C. After the incubation, 10 μL was transferred to the assay plate, to give a […] solution, then incubated for 18-20 h at 37° C./5% CO2.

In test [2] the target is T1, interaction between IL-17A and soluble IL-17 Receptor A (IL-17RA) (Homo sapiens, UniProt Q16552).
T1 construct: made in house; host or cells: IL-17A-Fc: CHO SXE cells; IL-17RA: Expi HEK293 cells
T1 sequence (Q16552 24-155): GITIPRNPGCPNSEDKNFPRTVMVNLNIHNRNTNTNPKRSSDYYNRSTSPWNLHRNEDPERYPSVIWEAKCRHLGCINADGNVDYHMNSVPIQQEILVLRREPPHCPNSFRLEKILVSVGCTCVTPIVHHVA
Description: IL-17 FRET assay. To be noted: IL-17A binding to IL-17RA. How it is done: The purpose of this assay is to test the ability of compounds to disrupt the interaction between IL-17A and soluble IL-17 Receptor A (IL-17RA). The ability of a compound to inhibit IL-17A binding to IL-17RA is measured in this assay.
An IL-17AA-TEV-Human Fc construct was expressed in a CHO SXE cell system and purified by protein A chromatography and size exclusion. The protein was labelled with an amine reactive AlexaFluor 647 dye (Thermo Fisher #A20006), as per manufacturer's instruction.
Soluble IL-17RA (33-317)-HKH-TEV-Fc was expressed in an Expi HEK293 cell system and purified by protein A chromatography and size exclusion. The Fc tag was cleaved by TEV, producing IL-17RA (33-317)-HKH, and the protein was labelled with amine reactive terbium (Thermo Fisher #PV3581).
In assay buffer [Dulbecco's PBS (Sigma #14190-094), 0.05% P20 (Thermo Scientific #28320), 1 mg/mL BSA (Sigma #A2153-500G)] the following solutions were prepared:
• IL-17A-Fc-AF647 at 5 nM • IL-17RA-HKH-Tb at 5 nM
Compounds were serially diluted in DMSO before receiving an aqueous dilution into a 384 well dilution plate (Greiner #781281), to give a 25% DMSO solution.
IL-17A (10 μL) was added to a black low volume assay plate (Costar #4511) and diluted compound (5 μL) was transferred from the aqueous dilution plate. The cytokine and compound were allowed to incubate for 1 h, then IL-17RA (10 μL) was added. The plates were wrapped in foil and incubated at room temperature for 18-20 h with gentle shaking (<400 rpm) before being read on a Perkin Elmer Envision plate reader (Excitation: 330 nm; Emission 615/645 nm).
The final assay concentrations were IL-17A-AF647 2 nM and IL-17RA-Tb 2 nM, 5% DMSO.

Broadly, the IC50 is the concentration that gives 50% inhibition. Low values mean higher potency, high ones lower potency. Turning to `Cc1nonc1C(=O)N[C@H](c1nc2c(F)c(C(CC(F)F)C(=O)N3CC(F)(F)C3)ccc2[nH]1)C1CCC(F)(F)CC1` (mixture of isomers) [Example 3, N—[(S)-{5-[1-(3,3-Difluoroazetidine-1-carbonyl)-3,3-difluoropropyl]-4-fluoro-1H-benzimidazol-2-yl}(4,4-difluorocyclohexyl)methyl]-4-methyl-1,2,5-oxadiazole-3-carboxamide], the half-inhibitory concentration (IC50) in test [1] (Incubation Time 5 h) and in test [2] was 25.1 nM throughout.

With `CC(C(=O)N1CC(F)(F)C1)c1ccc2[nH]c([C@@H](NC(=O)c3ccnn3C)C3CCC(F)(F)CC3)nc2c1F` (mixture of isomers) [Example 20, N—[(S)-{5-[2-(3,3-Difluoroazetidin-1-yl)-1-methyl-2-oxoethyl]-4-fluoro-1H-benzimidazol-2-yl}(4,4-difluorocyclohexyl)methyl]-2-methylpyrazole-3-carboxamide], the values for the half-maximal inhibitory concentration (IC50) in test [1] (Incubation Time 5 h) and in test [2] were 20 nM and 100 nM, respectively.

On to `COC(=O)N1CC[C@](C(=O)N2CC(F)(F)C(F)(F)C2)(c2ccc3[nH]c([C@@H](NC(=O)c4nonc4C)C4CCC(F)(F)CC4)nc3c2F)C1` (single isomer, unassigned) [Example 1], for which the IC50 in test [1] (Incubation Time 5 h) was 6.31 nM; in test [2] it was 39.8 nM.

As to `COC(=O)N1CC[C@@](C(=O)N2CC(F)(F)C(F)(F)C2)(c2ccc3[nH]c([C@@H](NC(=O)c4nonc4C)C4CCC(F)(F)CC4)nc3c2F)C1` (single isomer, unassigned) [Example 2], the IC50 in test [1] (Incubation Time 5 h) is 10 nM; in test [2], 39.8 nM.

For the compound `Cc1nonc1C(=O)N[C@H](c1nc2c(F)c([C@H](CC(F)F)C(=O)N3CC(F)(F)C3)ccc2[nH]1)C1CCC(F)(F)CC1` (single isomer, unassigned) [Example 4], the IC50 is 15.8 nM in test [1] (Incubation Time 5 h) and 39.8 nM in test [2].

Turning to `Cc1nonc1C(=O)N[C@H](c1nc2c(F)c([C@@H](CC(F)F)C(=O)N3CC(F)(F)C3)ccc2[nH]1)C1CCC(F)(F)CC1` (single isomer, unassigned) [Example 5], the values for the IC50 in test [1] (Incubation Time 1 h) and in test [2] were 1260 nM and 1580 nM, respectively.

Consider `C[C@H](C(=O)N1CC(F)(F)C1)c1ccc2[nH]c([C@@H](NC(=O)c3ccnn3C)C3CCC(F)(F)CC3)nc2c1F` (single isomer, unassigned) [Example 21], for which the half-maximal inhibitory concentration (IC50) in test [1] (Incubation Time 5 h) is 15.8 nM; in test [2], 25.1 nM.

Consider `C[C@@H](C(=O)N1CC(F)(F)C1)c1ccc2[nH]c([C@@H](NC(=O)c3ccnn3C)C3CCC(F)(F)CC3)nc2c1F` (single isomer, unassigned) [Example 22], for which the IC50 in test [1] (Incubation Time 5 h) and in test [2] was 316 nM each time.

In turn, `CC(C)n1ncnc1C(=O)N[C@H](c1nc2c(F)c([C@H](CC(C)(F)F)C(=O)NCC(C)(C)F)ccc2[nH]1)C1CCC(F)(F)CC1` [Example 79, N—[(S)-(4,4-Difluorocyclohexyl)(5-{(1S)-3,3-difluoro-1-[(2-fluoro-2-methylpropyl)-carbamoyl]butyl}-4-fluoro-1H-benzimidazol-2-yl)methyl]-2-isopropyl-1,2,4-triazole-3-carboxamide] gave a concentration for half-maximal inhibition (IC50) in test [1] (Incubation Time 5 h) of 7.94 nM.

For `CC(C)n1ncnc1C(=O)N[C@H](c1nc2c(F)c([C@H](CC(F)F)C(=O)NCC(F)(F)F)ccc2[nH]1)C1CCC(F)(F)CC1` [Example 80, N—[(S)-(4,4-Difluorocyclohexyl){5-[(1S)-3,3-difluoro-1-(2,2,2-trifluoroethylcarbamoyl)-propyl]-4-fluoro-1H-benzimidazol-2-yl}methyl]-2-isopropyl-1,2,4-triazole-3-carboxamide], in test [1] (Incubation Time 5 h), the half-inhibitory concentration (IC50) is 6.31 nM.

`O=C(NCC(F)(F)F)[C@@H](CC(F)F)c1ccc2[nH]c([C@@H](NC(=O)C3(F)CC3)C3CCC(F)(F)CC3)nc2c1F` [Example 81, N—[(S)-(4,4-Difluorocyclohexyl){5-[(1S)-3,3-difluoro-1-(2,2,2-trifluoroethylcarbamoyl)-propyl]-4-fluoro-1H-benzimidazol-2-yl}methyl]-1-fluorocyclopropanecarboxamide] gave a half-inhibitory concentration (IC50) in test [1] (Incubation Time 5 h) of 31.6 nM.
